Source: publication PMC11644518 (Plants, 2024)
“And” between values parts separate entries of the source, which are not always exact repeats. Equal entries are not always repeated.

Tests used:
SARS-CoV PLpro [1] = target: T1, SARS-CoV PLpro (Severe acute respiratory syndrome coronavirus, UniProt P0C6X7); assay: biochemical; details: for IC50: IC50 Value, SARS-CoV PLpro inhibitory activity
SARS-CoV PLpro [2] = target: T1, SARS-CoV PLpro; assay: biochemical; details: for Ki: Ki (inhibition constant)

Row | SMILES | fold lower potency than 7 (SARS-CoV PLpro [1]) [fold] | IC50 (SARS-CoV PLpro [1]) | Inhibition Mode (SARS-CoV PLpro [2]) | Ki (SARS-CoV PLpro [2]) | fold higher inhibition than demethoxylated analog 1 (SARS-CoV PLpro [1]) [fold] | Effect on Michaelis-Menten constant (Km) (SARS-CoV PLpro [2]) | Effect on Vmax (SARS-CoV PLpro [2]) | Reversibility of inhibition (SARS-CoV PLpro [2])
1 | CC(C)=CCC[C@@]1(C)C=Cc2c(ccc(C(=O)/C=C/c3ccc(O)cc3)c2O)O1 (racemic) [Compound 8, (±)-lespeol] | 8 | 50.1 ± 4.2 µM | Noncompetitive (54.0 ± 4.5) | 54 µM | – | – | – | –
2 | CC(C)=CCc1cc2c(cc1O)OC[C@H]1c3ccc(O)c(CC=C(C)C)c3O[C@@H]21 [Compound 1, erythrabyssin II] | – | – | Noncompetitive (17.0 ± 3.1) | – | – | – | – | –
3 | CC(C)=CCc1cc2c(cc1O)OCC1c3cc(C)c(O)c(CC=C(C)C)c3OC21 (stereo not shown) [Compound 2, lespebuergine G4] | – | 33 µM and 32.9 µM | Noncompetitive (33.2 ± 1.7) | 33.2 µM | – | – | – | –
4 | COc1c(CC=C(C)C)c(O)cc2c1[C@@H]1Oc3c(ccc(O)c3CC=C(C)C)[C@@H]1CO2 [Compound 3, 1-methoxyerythrabyssin II] | – | 11.2 µM | Noncompetitive (8.6 ± 1.1) | 8.6 µM | 2 | – | – | –
5 | COc1c(CC=C(C)C)c(O)cc2c1[C@@H]1Oc3c(cc(C)c(O)c3CC=C(C)C)[C@@H]1CO2 [Compound 4, bicolosin A] | – | 43.3 µM and 43.2 µM | Noncompetitive (45.2 ± 3.1) | 45.2 µM | – | – | – | –
6 | CC(C)=CCC/C(C)=C/Cc1cc2c(cc1O)OC[C@H]1c3cc(C)c(O)c(CC=C(C)C)c3O[C@@H]21 [Compound 5, bicolosin B] | – | 217 ± 7.6 µM | – | – | – | – | – | –
7 | COc1cc(O)c(C/C=C(\C)CCC=C(C)C)c2c1[C@@H]1Oc3cc(O)ccc3[C@@H]1CO2 [Compound 6, bicolosin C] | – | 9.3 ± 3.1 µM | Noncompetitive (9.0 ± 1.4) | 9.06 µM and 9 µM | – | no effect | reduced | reversible inhibitor
8 | CC(C)=CCC/C(C)=C/Cc1c(O)ccc(C(=O)/C=C/c2ccc(O)cc2)c1O [Compound 7, xanthoangelol] | – | 6.3 ± 1.5 µM | Noncompetitive (5.5 ± 0.8) | 5.5 µM | – | – | – | –
9 | COc1c(O)ccc(C2COc3cc(O)cc(O)c3C2=O)c1OC (stereo not shown) [Compound 9, parvisoflavanone] | – | 104 ± 6.1 µM | Noncompetitive (75.3 ± 5.7) | 75.3 µM | – | – | – | –
